Columns and labels:
30 MRSA isolates = assay: Emergence of Resistance Test; assay type: cell-based, Staphylococcus aureus
Description: (§1) Overnight cultures of each of 30 MRSA isolates and 30 Methicillin Susceptible Stapyloccus aureus (MSSA) isolates were grown in Mueller-Hinton broth (MHB) at 35° C. in room air. Bacteria in the broth were concentrated by centrifugation for 15 minutes at 2,200 revolustions per minute (rpm). The spent broth was decanted and replaced with fresh MHB containing 0.5 μL per mL of each of three antimicrobial compositions (Examples 31(IPA), 32(IPA), and 33(IPA)) or 0.125 μg/mL of mupirocin lithium salt (Sigma Aldrich, Milwaukee, Wis.). The cultures were returned to the incubator for 18 hours. Following incubation, each culture was again centrifuged and the bacterial pellet was divided into two aliquots. One aliquot was resuspended in MHB containing fresh antimicrobial compositions at twice the previous concentrations and returned to the incubator for continued exposure.
(§2) The second aliquot was screened for MRSA and MSSA by incubation with 2 mL of MHB containing 4 μg/mL of mupirocin or 1,200 μg/mL of Examples 31(IPA) or 32(IPA) or 33 (IPA). The resistance screens were incubated overnight at 35° C. in room air. After incubation, each screen was subcultured to fresh MHB and incubated for 4 to 6 hours. Minimum inhibitory concentration (MIC) testing was performed on logarithmically growing bacteria recovered from the screen. This procedure was repeated for 8 days. After 8 days of serial exposure, each bacterial pellet was resuspended in bland MHB and incubated overnight. The MIC of each antimicrobial composition or mupirocin was determined as the MIC90 (range) before and daily during serial passage.
(§3) The IPA modified antimicrobial compositions were tested using the Emergence of Resistance Test. The results are shown at baseline (T0), after eight days (T8) and the ratio of T0 to T8 in Table 9d.

[1] = system: 30 Methicillin Susceptible Stapyloccus aureus (MSSA) isolates; assay: Emergence of Resistance Test; assay type: cell-based, Staphylococcus aureus
Description: as §1, §2, §3

[2] = system: MRSA #561 (clinical isolate of methicillin resistant staphylococcus); assay: Murine MRSA nasal colonization model; assay type: in vivo, mice; settings: 10 μL per nare, three times daily for two days; nares cultured three days after treatment
Description: 1999 Infect and Immunity 67(10) 5001-5006. Prior to evaluation of the active compositions the lowest number of S. aureus required to establish nasal colonization in 70% of mice detectable 5 days after challenge and persisting at least 10 days after challenge was determined. This was using an innoculum of 10^8 cfu/nare. Mice (239 described as 25 g to 30 g Hsd:ICR) were challenged intranasally with 10^8 MRSA #561 (a clinical isolate of methicillin resistant staphylococcus obtained from Mayo Clinic, Rochester, Minn.) and arbitrarily assigned to one of five treatment regimens: mupirocin ointment, bland ointment, antimicrobial compositions of Examples 31, 32, and 33. The bland ointment consisted of petrolatum (89%), glycerin (10%) and DOSS (1%). Mice received either no treatment (none) or treatment with 10 μL per nare of warmed (42° C.) ointment (one of five) to each nare, three times daily for two days Three days after treatment, both anterior nares were swabbed and cultured for MRSA. Colonies appearing to be S. aureus were confirmed with a latex agglutination test. S. aureus was detected in 160 colonization cultures from 239 mice challenged. These mice continued to be studied. The results of the treatments are listed in Table 9e as the number of animals with no MRSA detected after treatment (successful), the percent of the animals treated successfully, the number of animals with MRSA (failure), and the percent of animals whose treatment failed.

[3] = MIC90 after eight days (T8) of serial exposure, unit assumed
[4] = MIC90 at baseline (T0), unit assumed

## C/C(=C\C(=O)OCCCCCCCCC(=O)O)C[C@@H]1OC[C@H](C[C@@H]2O[C@H]2[C@@H](C)[C@H](C)O)[C@@H](O)[C@H]1O [Mupirocin, mupirocin]
30 MRSA isolates; [3]
  MRSA Final (T8) MIC: 64 µg/mL
30 MRSA isolates; [4]
  MRSA Initial (T0) MIC: 0.25 µg/mL
30 MRSA isolates; eight days of serial exposure
  Increase of the MIC: increased dramatically
[1]; [3]
  MSSA Final (T8) MIC: 128 µg/mL
[1]; [4]
  MSSA Initial (T0) MIC: 0.25 µg/mL
[1]; ratio of MIC at T0 and T8
  MSSA MIC fold increase (T8/T0): 512
[2]
  Number of Mice with MRSA: 19
  Number of Mice without MRSA: 19
  Percent Treated Successfully: 50%
  Percent Whose Treatment Failed: 50%
